Experimental data: patent US20090215758A1, “Use of 2,5-Disubstituted Thiazol-4-One Derivatives in Drugs” (Gruenenthal GmbH, priority 2005, published 2009)

Assays:
[1] = target: T1, vanilloid receptor 1 (VR1/TRPV1) of the rat species (Rattus norvegicus, UniProt O35433); assay: Functional study on vanilloid receptor 1, FLIPR Ca2+ assay in rat dorsal root ganglia cells; type: cell-based; conditions: for inhibition at 10 µM: read-out: VR1 (rat) (% inhibition compared to 10 μM CP); for activation at 10 µM: read-out: VR1 (rat) (% stimulation compared to 10 μM CP)
T1 construct: The spinal column is removed from beheaded rats; from tissue; host or cells: primary cells from rat dorsal root ganglia (DRGs)
T1 sequence (O35433 whole entry): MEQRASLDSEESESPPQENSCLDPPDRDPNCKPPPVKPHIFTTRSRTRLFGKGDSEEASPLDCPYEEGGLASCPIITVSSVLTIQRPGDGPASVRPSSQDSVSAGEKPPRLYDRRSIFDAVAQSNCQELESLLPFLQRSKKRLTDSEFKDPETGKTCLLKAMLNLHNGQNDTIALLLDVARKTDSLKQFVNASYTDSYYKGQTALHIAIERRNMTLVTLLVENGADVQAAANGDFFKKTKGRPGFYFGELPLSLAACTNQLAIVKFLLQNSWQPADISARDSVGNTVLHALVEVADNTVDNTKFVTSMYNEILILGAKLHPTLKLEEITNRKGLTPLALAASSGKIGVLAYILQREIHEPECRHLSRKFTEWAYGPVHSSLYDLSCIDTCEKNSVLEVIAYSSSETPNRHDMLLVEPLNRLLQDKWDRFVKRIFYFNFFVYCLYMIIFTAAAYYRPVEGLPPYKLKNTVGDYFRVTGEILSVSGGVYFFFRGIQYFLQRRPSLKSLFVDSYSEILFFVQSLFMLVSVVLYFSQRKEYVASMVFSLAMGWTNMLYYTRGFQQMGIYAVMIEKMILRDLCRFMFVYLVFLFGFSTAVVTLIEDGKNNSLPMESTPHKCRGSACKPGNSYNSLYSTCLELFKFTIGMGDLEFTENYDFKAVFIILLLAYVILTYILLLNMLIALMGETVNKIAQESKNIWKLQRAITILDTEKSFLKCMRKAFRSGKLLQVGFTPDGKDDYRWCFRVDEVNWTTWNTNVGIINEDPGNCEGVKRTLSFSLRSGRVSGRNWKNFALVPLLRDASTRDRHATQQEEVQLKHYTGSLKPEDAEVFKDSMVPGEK
Procedure: The agonistic or antagonistic action of the substances to be studied on the vanilloid receptor 1 (VR1/TRPV1) of the rat species can be determined with the following assay. In this assay, the Ca^2+ current through the receptor channel is quantified with the aid of a Ca^2+-sensitive dye (Fluo-4 type, Molecular Probes Europe BV, Leiden the Netherlands) in a fluorescent imaging plate reader (FLIPR, Molecular Devices, Sunnyvale, USA).
Complete medium: 50 ml HAMS F12 Nutrient Mixture (Gibco Invitrogen GmbH, Karlsruhe, Germany) with 10% by volume of FCS (fetal calf serum, Gibco Invitrogen GmbH, Karlsruhe, Germany, heat-inactivated);
2 mM L-glutamine (Sigma, Munich, Germany);
1% by weight of AA solution (antibiotic/antimycotic solution, PAA, Pasching, Austria) and 25 ng/ml of NGF medium (2.5 S, Gibco Invitrogen GmbH, Karlsruhe, Germany)
Cell culture plate: poly-D-lysine-coated, black 96-hole plates with a clear bottom (96 well black/clear plate, BD Biosciences, Heidelberg, Germany) are additionally coated with laminin (Gibco Invitrogen GmbH, Karlsruhe, Germany) by diluting laminin to a concentration of 100 μg/ml with PBS (Ca—Mg-free PBS, Gibco Invitrogen GmbH, Karlsruhe, Germany). Aliquots having a concentration of 100 μg/ml of laminin are withdrawn and stored at −20° C. The aliquots are diluted with PBS in a ratio of 1:10 to 10 μg/ml of laminin and in each case 50 μl of the solution are pipetted into a well of the cell culture plate. The cell culture plates are incubated at 37° C. for at least two hours, the supernatant solution is removed by suction and the wells are each washed twice with PBS. The coated cell culture plates are stored with supernatant PBS which is not removed until directly before the application of the cells.
The spinal column is removed from beheaded rats and placed directly into cold HBSS buffer (Hank's buffered saline solution, Gibco Invitrogen GmbH, Karlsruhe, Germany), i.e. placed in an ice bath, which has been admixed with 1% by volume of an AA solution (antibiotic/antimycotic solution, PAA, Pasching, Austria). The spinal column is severed longitudinally and removed from the spinal canal together with fasciae. Subsequently, the dorsal root ganglia (DRGs) are removed and in turn stored in cold HBSS buffer admixed with 1% by volume of an AA solution. The DRGs freed completely of blood residues and spinal nerves are in each case transferred to 500 μl of cold type 2 collagenase (PAA, Pasching, Austria) and incubated at 37° C. for 35 minutes. […] After complete incubation, the enzyme solution is cautiously pipetted off and the remaining DRGs are each suspended with 500 μl of complete medium.
The DRGs are each suspended repeatedly, drawn through cannulas No. 1, No. 12 and No. 16 by means of a syringe and transferred to 50 ml Falcon tubes which are made up to 15 ml with complete medium. The contents of each Falcon tube are in each case filtered through a 70 μm Falcon filter insert and centrifuged at 1200 revolutions and room temperature for 10 minutes. The resulting pellet is in each case taken up in 250 μl of complete medium and the cell count is determined.
The number of cells in the suspension is adjusted to 3 times 10^5 per ml and in each case 150 μl of this suspension are added to one well of the cell culture plates coated as described above.
Subsequently, the cells are laden with 2 μM Fluo-4 and 0.01% by volume of Pluronic F127 (Molecular Probes Europe BV, Leiden, the Netherlands) in HBSS buffer (Hank's buffered saline solution, Gibco Invitrogen GmbH, Karlsruhe, Germany) at 37° C. for 30 min, washed 3× with HBSS buffer and, after a further incubation of 15 minutes, used in the FLIPR assay at room temperature for Ca^2+ measurement. The Ca^2+-dependent fluorescence is measured before and after addition of substances (λex=488 nm, λem=540 nm). The quantification is effected by the measurement of the highest fluorescence intensity (FC, fluorescence counts) over the time.

VR1 (human) = target: T2, VR1 (human) (Homo sapiens, UniProt Q8NER1); assay: Functional study on vanilloid receptor (VR1), FLIPR Ca2+ assay in CHO K1 cells stably transfected with the VR1 gene; type: cell-based; conditions: for inhibition at 10 µM / activation at 10 µM: CHO-K1, test compound 10 μM; for activation at 10 µM: read-out: VR1 (human) (% stimulation compared to 10 μM CP)
T2 construct: expressed in transfected cells; host or cells: CHO K1 cells (ECACC), stably transfected
T2 sequence (Q8NER1 whole entry): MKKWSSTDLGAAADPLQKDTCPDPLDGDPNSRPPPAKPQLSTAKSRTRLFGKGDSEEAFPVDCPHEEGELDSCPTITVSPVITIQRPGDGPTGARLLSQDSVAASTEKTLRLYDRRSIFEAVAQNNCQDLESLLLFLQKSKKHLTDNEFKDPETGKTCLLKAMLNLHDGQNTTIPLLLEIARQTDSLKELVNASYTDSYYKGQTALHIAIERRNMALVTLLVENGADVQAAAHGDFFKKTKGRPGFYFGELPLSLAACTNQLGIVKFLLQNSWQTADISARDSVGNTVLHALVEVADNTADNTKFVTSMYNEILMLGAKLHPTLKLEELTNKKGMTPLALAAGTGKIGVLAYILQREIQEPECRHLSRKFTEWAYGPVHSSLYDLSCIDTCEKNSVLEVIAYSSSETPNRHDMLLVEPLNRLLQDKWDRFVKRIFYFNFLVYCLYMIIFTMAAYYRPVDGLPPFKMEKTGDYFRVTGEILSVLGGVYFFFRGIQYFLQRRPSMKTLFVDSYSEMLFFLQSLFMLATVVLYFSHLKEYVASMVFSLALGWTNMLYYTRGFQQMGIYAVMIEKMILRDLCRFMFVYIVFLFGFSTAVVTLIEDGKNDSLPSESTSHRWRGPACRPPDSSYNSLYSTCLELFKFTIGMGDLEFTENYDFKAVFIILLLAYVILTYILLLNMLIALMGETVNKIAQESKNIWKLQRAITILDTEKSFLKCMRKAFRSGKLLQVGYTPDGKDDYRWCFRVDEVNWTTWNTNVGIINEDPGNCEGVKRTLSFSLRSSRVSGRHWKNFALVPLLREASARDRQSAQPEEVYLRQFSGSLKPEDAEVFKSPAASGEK
Source text: The agonistic or antagonistic action of the substances to be tested on vanilloid receptor (VR1) can also be determined with the assay which follows. In this assay, the Ca^2+ current through the channel is quantified with the aid of a Ca^2+-sensitive dye (Fluo-4 type, Molecular Probes, Europe BV, Leiden, the Netherlands) in a fluorescent imaging plate reader (FLIPR, Molecular Devices, Sunnyvale, USA).
Chinese hamster ovary cells (CHO K1 cells, European Collection of Cell Cultures (ECACC) Great Britain) are transfected stably with the VR1 gene. For functional studies, these cells are plated out onto poly-D-lysine-coated black 96-well plates with a clear bottom (BD Biosciences, Heidelberg, Germany) in a density of 25 000 cells/well. The cells are incubated overnight at 37° C. and 5% CO2 in a culture medium (Ham's Nutrient Mixture F12, 10% by volume of FCS (fetal calf serum), 18 μg/ml of L-proline). The next day, the cells are incubated with Fluo-4 (Fluo-4 2 μM, Pluronic F127 0.01% by volume, Molecular Probes in HBSS (Hank's buffered saline solution), Gibco Invitrogen GmbH, Karlsruhe, Germany) at 37° C. for 30 minutes. Subsequently, the plates are washed 3 times with HBSS buffer and, after a further incubation of 15 minutes at room temperature, used for Ca^2+ measurement in FLIPR. The Ca^2+-dependent fluorescence is measured before and after addition of the substances to be studied (wavelength λex=488 nm, λem=540 nm). The quantification is effected by measuring the highest fluorescence intensity (FC, fluorescence counts) over the time.
The FLIPR protocol consists of 2 substance additions. First, the substances to be tested (10 μM) are pipetted onto the cells and the Ca current is compared with the control (capsaicin 10 μM) (% activation based on the Ca^2+ signal after addition of 10 μM capsaicin). After incubation for 5 minutes, 100 nM capsaicin is applied and the current of Ca^2+ is likewise determined.

[2] = test compound 10 μM, 5 min incubation, then 100 nM capsaicin, relative to maximum inhibition with 10 μM capsaicin
[3] = test compound 10 μM, Ca2+ signal relative to 10 μM capsaicin (CP)
[4] = 5 min incubation, then 100 nM capsaicin, compared to 10 μM CP
[5] = Ca2+ signal relative to 10 μM capsaicin (CP)

Compound | inhibition at 10 µM [1, 2] | activation at 10 µM [1, 3] | inhibition at 10 µM (VR1 (human); [4]) | activation at 10 µM (VR1 (human); [5]) | EC50 ([1]; unit inferred) | EC50 (VR1 (human); unit inferred) | VR1 (rat) (% inhibition compared to 10 μM CP) [1, 2] | VR1 (rat) (% stimulation compared to 10 μM CP) [1, 3] | VR1 (human) (% inhibition compared to 10 μM CP) (VR1 (human); test compound 10 μM, 5 min incubation, then 100 nM capsaicin, compared to 10 μM CP) | VR1 (human) (% stimulation compared to 10 μM CP) (VR1 (human); [3])
O=C1N=C(N2CCN(c3ncccc3Cl)CC2)SC1=Cc1ccc2ccccc2c1 [Example 49, 2-[4-(3-chloropyridin-2-yl)piperazin-1-yl]-5-naphthalen-2-ylmethylenethiazol-4-one] | 78.5% | 0.4% | 34.1% | 0% | – | – | – | – | – | –
O=C1N=C(N2CCSCC2)SC1=CC(Cl)=Cc1ccccc1 [Example 85, 5-(2-chloro-3-phenylallylidene)-2-thiomorpholin-4-ylthiazol-4-one] | 77.1% | 54.9% | 97.5% | 82.5% | – | – | – | – | – | –
O=C1N=C(N2CCSCC2)SC1=Cc1cccc(C(=O)N2CCN(c3ncccc3Cl)CC2)c1 [Example 88, 5-{3-[4-(3-chloropyridin-2-yl)piperazine-1-carbonyl]benzylidene}-2-thiomorpholin-4-ylthiazol-4-one] | 90.1% | 72.8% | 71.1% | 61.4% | – | – | – | – | – | –
O=C(NC1=NC(=O)C(=Cc2ccc(C(F)(F)F)cc2)S1)Nc1ccccc1C(F)(F)F [Example 96, 1-[4-oxo-5-(4-trifluoromethylbenzylidene)-4,5-dihydrothiazol-2-yl]-3-(2-trifluoromethylphenyl)urea] | 27% | 28.5% | 54.6% | 5.03% | – | – | – | – | – | –
CC1CN(C(=O)c2cccc(C=C3SC(N4CCSCC4)=NC3=O)c2)CCN1c1ncccc1Cl (centres unmarked) [Example 110, 5-{3-[4-(3-chloropyridin-2-yl)-3-methylpiperazine-1-carbonyl]benzylidene}-2-thiomorpholin-4-ylthiazol-4-one] | 50.3% | 49.3% | 28.8% | 1.02% | – | – | – | – | – | –
O=C1N=C(N2CCSCC2)SC1=Cc1cccc(C(=O)N2CCN(c3ncc(C(F)(F)F)cc3Cl)CC2)c1 [Example 113, 5-{3-[4-(3-chloro-5-trifluoromethylpyridin-2-yl)piperazine-1-carbonyl]-benzylidene}-2-thiomorpholin-4-ylthiazol-4-one] | 97.4% | 136% | 97.8% | 90.3% | – | – | – | – | – | –
O=C1N=C(N2CCSCC2)SC1=Cc1cccc(C(=O)N2CCN(c3nsnc3Cl)CC2)c1 [Example 115, 5-{3-[4-(4-chloro-[1,2,5]thiadiazol-3-yl)piperazine-1-carbonyl]benzylidene}-2-thiomorpholin-4-ylthiazol-4-one] | 95.8% | 128% | 66.2% | 68.2% | – | – | – | – | – | –

More lines, now with the values ahead:

inhibition at 10 µM [1, 2] | activation at 10 µM [1, 3] | inhibition at 10 µM (VR1 (human); [4]) | activation at 10 µM (VR1 (human); [5]) | EC50 ([1]; unit inferred) | EC50 (VR1 (human); unit inferred) | VR1 (rat) (% inhibition compared to 10 μM CP) [1, 2] | VR1 (rat) (% stimulation compared to 10 μM CP) [1, 3] | VR1 (human) (% inhibition compared to 10 μM CP) (VR1 (human); test compound 10 μM, 5 min incubation, then 100 nM capsaicin, compared to 10 μM CP) | VR1 (human) (% stimulation compared to 10 μM CP) (VR1 (human); [3]) | Compound
64.3% | 39.6% | 34.3% | 10.9% | – | – | – | – | – | – | CC(=CC=C1SC(N2CCOCC2)=NC1=O)c1cccc(C(F)(F)F)c1 [Example 44, 2-morpholin-4-yl-5-[3-(3-trifluoromethylphenyl)but-2-enylidene]thiazol-4-one]
21.3% | 7.19% | 51.6% | 0% | – | – | – | – | – | – | O=C1N=C(N2CCOCC2)SC1=CC(=Cc1ccccc1)c1ccccc1 [Example 50, 5-(2,3-diphenylallylidene)-2-morpholin-4-ylthiazol-4-one]
87.9% | 96.1% | 81.7% | 79.6% | 2500 nM | > 25000 nM | – | – | – | – | O=C1N=C(N2CCSCC2)SC1=Cc1ccc2ccccc2c1 [Example 54, 5-naphthalen-2-ylmethylene-2-thiomorpholin-4-ylthiazol-4-one]
70.9% | 0.34% | 52.8% | 0% | – | – | – | – | – | – | Cc1ccc(C=C2SC(N3CCN(Cc4ccccc4)CC3)=NC2=O)cc1 [Example 63, 2-(4-benzylpiperazin-1-yl)-5-(4-methylbenzylidene)thiazol-4-one]
11.6% | 73.4% | 39.3% | 54.3% | – | – | – | – | – | – | COc1cc(C=C2SC(N3CCN(c4ccccc4)CC3)=NC2=O)ccc1O [Example 68, 5-(4-hydroxy-3-methoxybenzylidene)-2-(4-phenylpiperazin-1-yl)thiazol-4-one]
– | – | – | – | – | – | 87.60% | 79.68% | 84.29% | 85.02% | CC(C)c1ccc(C=C2SC(N3CCOCC3)=NC2=O)cc1 [Example 135, 5-(4-isopropylbenzylidene)-2-morpholin-4-ylthiazol-4-one]
96.9% | 84% | 86.7% | 114% | – | – | – | – | – | – | CC(C)c1ccc(C=C2SC(N3CCSCC3)=NC2=O)cc1 [Example 136, 5-(4-isopropylbenzylidene)-2-thiomorpholin-4-ylthiazol-4-one]
54.1% | 3.99% | 34.2% | 6.56% | – | – | – | – | – | – | Cc1ccc(N2CCN(C3=NC(=O)C(=Cc4ccc(C(C)(C)C)cc4)S3)CC2)nn1 [Example 154, 5-(4-tert-butylbenzylidene)-2-[4-(6-methylpyridazin-3-yl)piperazin-1-yl]thiazol-4-one]
